Experiments:
[1] = system: Beet Armyworm (Spodoptera exigua); assay: Bioassay on Beet Armyworm (BAW), 128-well diet tray assay; format: in vivo; settings: Spodoptera exigua, 168 h; 50 μg/cm^2 on artificial diet, second instar larvae, five to seven days; read-out: BAW % Control (or Mortality) rating
Experimental: (§1) Certain molecules disclosed in this document were tested against BAW and CL using procedures described in the following examples. In the reporting of the results, the “BAW & CL Rating Table” was used (See Table Section).
Bioassays on BAW were conducted using a 128-well diet tray assay. […] Trays were covered with a clear self-adhesive cover, vented to allow gas exchange, and held at 25° C., 14:10 light-dark for five to seven days. Percent mortality was recorded for the larvae in each well; activity in the eight wells was then averaged. The results are indicated in the table entitled “Table ABC: Biological Results” (See Table Section).

[2] = system: Cabbage Looper (Trichoplusia ni); assay: Bioassay on Cabbage Looper (CL), 128-well diet tray assay; format: in vivo; settings: 168 h, 50 μg/cm^2 on artificial diet, second instar larvae, five to seven days, read-out: CL % Control (or Mortality) rating
Experimental: as §1
Bioassays on CL were conducted using a 128-well diet tray assay. One to five second instar CL larvae were placed in each well (3 mL) of the diet tray that had been previously filled with 1 mL of artificial diet to which 50 μg/cm^2 of the test molecule (dissolved in 50 μL of 90:10 acetone-water mixture) had been applied (to each of eight wells) and then allowed to dry. Trays were covered with a clear self-adhesive cover, vented to allow gas exchange, and held at 25° C., 14:10 light-dark for five to seven days. Percent mortality was recorded for the larvae in each well; activity in the eight wells was then averaged. The results are indicated in the table entitled “Table ABC: Biological Results” (See Table Section).

SMILES | mortality at 50 µg/cm2 [1] [%] | mortality at 50 µg/cm2 [2] [%]
O=C(NNc1c(Cl)cnc(C(Cl)(Cl)Cl)c1Cl)c1ccc(/C(F)=C/C(c2cc(Cl)c(Cl)c(Cl)c2)C(F)(F)F)cc1C(F)(F)F (stereo not drawn) [F69, (Z)—N′-(3,5-Dichloro-2-(trichloromethyl)-4-pyridin-4-yl)-4-(1,4,4,4-tetrafluoro-3-(3,4,5-trichlorophenyl)but-1-en-1-yl]-2-(trifluoromethyl)benzohydrazide] | 0 | 0
O=C(NNc1ccc(C(F)(F)F)cc1)c1ccc(/C(F)=C/C(c2cc(Cl)c(Cl)c(Cl)c2)C(F)(F)F)cc1C(F)(F)F (stereo not drawn) [F70, (Z)-4-(1,4,4,4-tetrafluoro-3-(3,4,5-trichlorophenyl)but-1-en-1-yl)-2-(trifluoromethyl)-N′-(4-(trifluoromethyl)phenyl)benzohydrazide] | 50 to 100 | 50 to 100
Cc1cc(C)c(NNC(=O)c2ccc(/C(F)=C/C(c3cc(Cl)c(Cl)c(Cl)c3)C(F)(F)F)cc2C(F)(F)F)c(C)c1 (stereo not drawn) [F73, (Z)—N′-Mesityl-4-(1,4,4,4-tetrafluoro-3-(3,4,5-trichlorophenyl)but-1-en-1-yl)-2-(trifluoromethyl)benzohydrazide] | 50 to 100 | 0 to 50
O=C(NNc1ncccn1)c1ccc(/C(F)=C\C(c2cc(Cl)c(Cl)c(Cl)c2)C(F)(F)F)cc1C(F)(F)F (stereo not drawn) [F74, (E)-N′-(pyrimidin-2-yl)-4-(1,4,4,4-tetrafluoro-3-(3,4,5-trichlorophenyl)but-1-en-1-yl)-2-(trifluoromethyl)benzohydrazide] | 50 to 100 | 50 to 100
Cc1nc(C)c(C)c(NNC(=O)c2ccc(/C(F)=C/C(c3cc(Cl)c(Cl)c(Cl)c3)C(F)(F)F)cc2C(F)(F)F)n1 (stereo not drawn) [F75, (Z)-4-(1,4,4,4-Tetrafluoro-3-(3,4,5-trichlorophenyl)but-1-en-1-yl)-2-(trifluoromethyl)-N′-(2,5,6-trimethylpyrimidin-4-yl)benzohydrazide] | 50 to 100 | 50 to 100
O=C(NNc1ncccn1)c1ccc(/C(F)=C/C(c2cc(Cl)cc(C(F)(F)F)c2)C(F)(F)F)cc1C(F)(F)F (stereo not drawn) [F77, (Z)-4-(3-(3-Chloro-5-(trifluoromethyl)phenyl)-1,4,4,4-tetrafluorobut-1-en-1-yl)-N′-(pyrimidin-2-yl)-2-(trifluoromethyl)benzohydrazide] | 50 to 100 | 50 to 100
Cc1nc(Cl)cc(NNC(=O)c2ccc(/C(F)=C/C(c3cc(Cl)c(Cl)c(Cl)c3)C(F)(F)F)cc2C(F)(F)F)n1 (stereo not drawn) [F79, (Z)—N′-(6-Chloro-2-methylpyrimidin-4-yl)-4-(1,4,4,4-tetrafluoro-3-(3,4,5-trichlorophenyl)but-1-en-1-yl)-2-(trifluoromethyl)benzohydrazide] | 50 to 100 | 50 to 100
CN(NC(=O)c1ccc(/C(F)=C/C(c2cc(Cl)cc(C(F)(F)F)c2)C(F)(F)F)cc1C(F)(F)F)c1ncccn1 (stereo not drawn) [F83, (Z)-4-(3-(3-Chloro-5-(trifluoromethyl)phenyl)-1,4,4,4-tetrafluorobut-1-en-1-yl)-N′-methyl-N′-(pyrimidin-2-yl)-2-(trifluoromethyl)benzohydrazide] | 50 to 100 | 50 to 100
CCc1cnc(NNC(=O)c2ccc(/C(F)=C/C(c3cc(Cl)c(Cl)c(Cl)c3)C(F)(F)F)cc2C(F)(F)F)nc1 (stereo not drawn) [F84, (Z)—N′-(5-Ethylpyrimidin-2-yl)-4-(1,4,4,4-tetrafluoro-3-(3,4,5-trichlorophenyl)but-1-en-1-yl)-2-(trifluoromethyl)benzohydrazide] | 50 to 100 | 50 to 100
Cc1cc(C)nc(NNC(=O)c2ccc(/C(F)=C/C(c3cc(Cl)c(Cl)c(Cl)c3)C(F)(F)F)cc2C(F)(F)F)n1 (stereo not drawn) [F85, (Z)—N′-(4,6-Dimethylpyrimidin-2-yl)-4-(1,4,4,4-tetrafluoro-3-(3,4,5-trichlorophenyl)but-1-en-1-yl)-2-(trifluoromethyl)benzohydrazide] | 50 to 100 | 50 to 100
O=C(NNc1cccnn1)c1ccc(/C(F)=C/C(c2cc(Cl)c(Cl)c(Cl)c2)C(F)(F)F)cc1C(F)(F)F (stereo not drawn) [F86] | 50 to 100 | 50 to 100
O=C(NNc1c(Cl)cc(C(F)(F)F)cc1Cl)c1ccc(/C(F)=C/C(c2cc(Cl)c(Cl)c(Cl)c2)C(F)(F)F)cc1C(F)(F)F (stereo not drawn) [F87, (Z)—N′-(2,6-Dichloro-4-(trifluoromethyl)phenyl)-4-(1,4,4,4-tetrafluoro-3-(3,4,5-trichlorophenyl)but-1-en-1-yl)-2-(trifluoromethyl)benzohydrazide] | 0 | 0
O=C(Nn1ccc2ccccc21)c1ccc(/C(F)=C/C(c2cc(Cl)c(Cl)c(Cl)c2)C(F)(F)F)cc1C(F)(F)F (stereo not drawn) [F89, (Z)—N-(1H-Indol-1-yl)-4-(1,4,4,4-tetrafluoro-3-(3,4,5-trichlorophenyl)but-1-en-1-yl)-2-(trifluoromethyl)benzamide] | 50 to 100 | 50 to 100
COc1cnc(NNC(=O)c2ccc(/C(F)=C/C(c3cc(Cl)c(Cl)c(Cl)c3)C(F)(F)F)cc2C(F)(F)F)nc1 (stereo not drawn) [F90, (Z)—N′-(5-Methoxypyrimidin-2-yl)-4-(1,4,4,4-tetrafluoro-3-(3,4,5-trichlorophenyl)but-1-en-1-yl)-2-(trifluoromethyl)benzohydrazide] | 50 to 100 | 50 to 100
CN(NC(=O)c1ccc(/C(F)=C/C(c2cc(Cl)c(Cl)c(Cl)c2)C(F)(F)F)cc1C(F)(F)F)c1nccc(C(F)(F)F)n1 (stereo not drawn) [F91, (Z)—N′-methyl-4-(1,4,4,4-tetrafluoro-3-(3,4,5-trichlorophenyl)but-1-en-1-yl)-2-(trifluoromethyl)-N′-(4-(trifluoromethyl)pyrimidin-2-yl)benzohydrazide] | 50 to 100 | 50 to 100
O=C(NNc1cnccn1)c1ccc(/C(F)=C/C(c2cc(Cl)c(Cl)c(Cl)c2)C(F)(F)F)cc1C(F)(F)F (stereo not drawn) [F92, (Z)—N′-(Pyrazin-2-yl)-4-(1,4,4,4-tetrafluoro-3-(3,4,5-trichlorophenyl)but-1-en-1-yl)-2-(trifluoromethyl)benzohydrazide] | 50 to 100 | 50 to 100
O=C(NNc1ccc(Cl)cn1)c1ccc(/C(F)=C/C(c2cc(Cl)c(Cl)c(Cl)c2)C(F)(F)F)cc1C(F)(F)F (stereo not drawn) [F93, (Z)—N′-(5-Chloropyridin-2-yl)-4-(1,4,4,4-tetrafluoro-3-(3,4,5-trichlorophenyl)but-1-en-1-yl)-2-(trifluoromethyl)benzohydrazide] | 50 to 100 | 50 to 100
O=C(NNc1ncccn1)c1ccc(/C(F)=C/C(c2cc(Cl)c(Cl)c(Br)c2)C(F)(F)F)cc1C(F)(F)F (stereo not drawn) [F96, (Z)-4-(3-(3-Bromo-4,5-dichlorophenyl)-1,4,4,4-tetrafluorobut-1-en-1-yl)-N′-(pyrimidin-2-yl)-2-(trifluoromethyl)benzohydrazide] | 50 to 100 | 50 to 100
NN(CC1CC1)C(=O)c1ccc(/C(F)=C/C(c2cc(Cl)c(Cl)c(Cl)c2)C(F)(F)F)cc1C(F)(F)F (stereo not drawn) [F98, (Z)—N-(Cyclopropylmethyl)-4-(1,4,4,4-tetrafluoro-3-(3,4,5-trichlorophenyl)but-1-en-1-yl)-2-(trifluoromethyl)benzohydrazide] | 50 to 100 | 50 to 100
O=C(NNc1ncc(C(F)(F)F)cn1)c1ccc(/C(F)=C/C(c2cc(Cl)c(Cl)c(Cl)c2)C(F)(F)F)cc1C(F)(F)F (stereo not drawn) [F101, (Z)-4-(1,4,4,4-Tetrafluoro-3-(3,4,5-trichlorophenyl)but-1-en-1-yl)-2-(trifluoromethyl)-N′-(5-(trifluoromethyl)pyrimidin-2-yl)benzohydrazide] | 50 to 100 | 50 to 100
O=C(NNCCCC(F)(F)F)c1ccc(/C(F)=C/C(c2cc(Cl)c(Cl)c(Cl)c2)C(F)(F)F)cc1C(F)(F)F (stereo not drawn) [F103, (Z)-4-(1,4,4,4-tetrafluoro-3-(3,4,5-trichlorophenyl)but-1-en-1-yl)-N′-(4,4,4-trifluorobutyl)-2-(trifluoromethyl)benzohydrazide] | 50 to 100 | 50 to 100
O=C(NNc1cncc(Cl)n1)c1ccc(/C(F)=C/C(c2cc(Cl)c(Cl)c(Cl)c2)C(F)(F)F)cc1C(F)(F)F (stereo not drawn) [F104, (Z)—N′-(6-Chloropyrazin-2-yl)-4-(1,4,4,4-tetrafluoro-3-(3,4,5-trichlorophenyl)but-1-en-1-yl)-2-(trifluoromethyl)benzohydrazide] | 50 to 100 | 50 to 100
Cc1cc(O)nc(NNC(=O)c2ccc(/C(F)=C/C(c3cc(Cl)c(Cl)c(Cl)c3)C(F)(F)F)cc2C(F)(F)F)n1 (stereo not drawn) [F105, (Z)—N′-(4-Hydroxy-6-methylpyrimidin-2-yl)-4-(1,4,4,4-tetrafluoro-3-(3,4,5-trichlorophenyl)but-1-en-1-yl)-2-(trifluoromethyl)benzohydrazide] | 50 to 100 | 50 to 100
O=C(NNc1ncccn1)c1ccc(/C(F)=C/C(c2cc(Cl)cc(OC(F)(F)F)c2)C(F)(F)F)cc1C(F)(F)F (stereo not drawn) [F106, (Z)-4-(3-(3-Chloro-5-(trifluoromethoxy)phenyl)-1,4,4,4-tetrafluorobut-1-en-1-yl)-N′-(pyrimidin-2-yl)-2-(trifluoromethyl)benzohydrazide] | 50 to 100 | 50 to 100

Reference: patent US10638756B2, “Molecules having pesticidal utility, and intermediates, compositions, and processes, related thereto” (Dow AgroSciences LLC, priority 2017, dated 2020)
